Test [1] concerns CRL-2351 breast cancer cells. Kind of test: Sulforhodamine B. Format: cell-based. As to conditions: Homo sapiens, 120 h, read-out: SRB assay IC50 CRL-2351.
In a further test the test system is xenograft tumor. As to conditions: mouse model of human cancer; cited from earlier work.
The next test relates to AML progenitors. As to conditions: ref 23 (Tamburini et al.); cited from earlier work.

Structures are written as SMILES.

Turning to `COc1cc2c(cc1OC)-c1nc(N/N=C(\Cc3ccccc3[N+](=O)[O-])C(=O)O)sc1CO2` [(E)-46a, 2-(2-(7,8-Dimethoxy-4H-chromeno[4,3-d]thiazol-2-yl)hydrazono)-3-(2-nitrophenyl)propanoic Acid], in test [1], the half-inhibitory concentration (IC50) was over 20 µM. Still for that read-out and setting: the value for `COc1ccc2c(c1OC)OCc1sc(N/N=C(\Cc3ccccc3[N+](=O)[O-])C(=O)O)nc1-2` [(E)-46b, 2-(2-(6,7-Dimethoxy-4H-chromeno[4,3-d]thiazol-2-yl)hydrazono)-3-(2-nitrophenyl)propanoic Acid] was over 20 µM; that for `COc1cc2c(cc1OC)-c1nc(N/N=C(\Cc3ccccc3[N+](=O)[O-])C(=O)O)sc1CC2` [(E)-46c, 2-(2-(7,8-Dimethoxy-4,5-dihydronaphtho[1,2-d]thiazol-2-yl)hydrazono)-3-(2-nitrophenyl)propanoic Acid] was over 20 µM. Same read-out and setting: under `COc1cc2c(cc1OC)-c1nc(N/N=C(/Cc3ccccc3[N+](=O)[O-])C(=O)O)sc1CO2` [(Z)-46a, 2-(2-(7,8-Dimethoxy-4H-chromeno[4,3-d]thiazol-2-yl)hydrazono)-3-(2-nitrophenyl)propanoic Acid] stands over 20 µM; under `COc1ccc2c(c1OC)OCc1sc(N/N=C(/Cc3ccccc3[N+](=O)[O-])C(=O)O)nc1-2` [(Z)-46b, 2-(2-(6,7-Dimethoxy-4H-chromeno[4,3-d]thiazol-2-yl)hydrazono)-3-(2-nitrophenyl)propanoic Acid], over 20 µM; under `COc1cc2c(cc1OC)-c1nc(N/N=C(/Cc3ccccc3[N+](=O)[O-])C(=O)O)sc1CC2` [(Z)-46c, 2-(2-(7,8-Dimethoxy-4,5-dihydronaphtho[1,2-d]thiazol-2-yl)hydrazono)-3-(2-nitrophenyl)propanoic Acid], over 20 µM.

Turning to `O=C(O)C(Cc1ccccc1[N+](=O)[O-])=NNc1nc(-c2ccc(Cl)c(Cl)c2)cs1` [compound 1, (2-(2-(4-(3,4-dichlorophenyl)thiazol-2-yl)hydrazono)-3-(2-nitrophenyl)propanoic acid)], the “inhibition of xenograft tumor growth” value with xenograft tumor is “effectively inhibits xenograft tumor growth”. Further, in the test on AML progenitors, the “clonogenic growth of AML progenitors” value is “dramatically reduces the clonogenic growth of AML progenitors”.

Source of the values: publication PMC4216204 (Journal of Medicinal Chemistry, 2014).
